The target in one experiment is SRC (Homo sapiens, UniProt P12931). Nature of the experiment: Protein kinase selectivity, SRC. In kind it is biochemical.
For experiment [1], the system named is C57BL/6 cells (primary peritoneal macrophages). Nature of the experiment: LPS-IFN-γ-induced macrophage NO production (Griess nitrite assay), C57BL/6 cells. The conditions noted are these: 50 μM, 24 h; for NO release (%): relative to DMSO treated cells; for inhibition at 50 µM: Mus musculus, Peritoneal macrophage. Type of experiment: cell-based, mouse. The procedure:
Isolation of primary mouse macrophages. Peritoneal exudate macrophages were isolated by peritoneal lavage with ice-cold sterile physiological saline 24 h after intraperitoneal injection of BALB/c and CB57BL/6 mice with 0.3 ml of sterile Zymosan A (1 mg/0.5 ml 0.9% saline). Cells were washed, resuspended in RPMI 1640 supplemented with 2 mM L-glutamine, 100 units/ml penicillin, 100 μg/ml streptomycin, and 5% FBS.
Treatment of primary macrophages and RAW 264.7 cells. Primary macrophages (1.5×10^5 cells/well) and RAW 264.7 (4×10^4 cells/well) cells were grown in 96-well plates (nitrite assay), or 6-well plates (2×10^6 cells/well) for measurement of iNOS and COX-2 expression. Following 3 h incubation, at 37 C, 5% CO2 (macrophages were allowed to attach) cells were stimulated with LPS (0.5 μg/ml) and IFN-γ (100 U/ml) in the absence or presence of various concentrations of ILK inhibitors (all treatments were replicated six times). Cells were incubated for an additional 24 h, and cell free culture supernatants from each well were collected for NO and cytokine determination. The remaining cells were stained with crystal violet to determine effect of the inhibitors on cell survival.
NO production. Following stimulation, the production of NO was determined by assaying culture supernatants for NO2^−, a stable reaction product of NO with molecular oxygen. Briefly, 100 μl of culture supernatant was reacted with an equal volume of Griess reagent at room temperature for 10 min. The absorbance at 550 nm was determined. All measurements were performed six times. The concentration of NO2^−was calculated by comparison with a standard curve prepared using NaNO2.
Effects of ILK inhibitors on LPS-IFN-γ-induced NO release. […] […] To compare the effect of the compounds across three different cell types, the NO release for each cell type was expressed relative to DMSO treated cells. […] For example, macrophages from Balb/c and C57BL/6 mice responded similarly to the treatment with the compounds.

The next experiment deals with CDC2 (Homo sapiens, UniProt P06493). Nature of the experiment: Protein kinase selectivity, CDC2. Type of experiment: biochemical.
Sequence of CDC2 (P06493 whole entry, species assumed): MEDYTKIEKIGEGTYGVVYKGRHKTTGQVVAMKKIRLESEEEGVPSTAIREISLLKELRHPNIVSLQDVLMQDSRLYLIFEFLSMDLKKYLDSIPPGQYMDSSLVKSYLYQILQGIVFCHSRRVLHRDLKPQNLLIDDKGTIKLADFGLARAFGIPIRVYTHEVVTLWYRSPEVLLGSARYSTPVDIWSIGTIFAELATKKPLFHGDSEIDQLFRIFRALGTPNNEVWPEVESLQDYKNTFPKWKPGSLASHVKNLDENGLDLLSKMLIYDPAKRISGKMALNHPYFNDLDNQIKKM
Sequence of CDC2 (P14635 whole entry partner, species assumed): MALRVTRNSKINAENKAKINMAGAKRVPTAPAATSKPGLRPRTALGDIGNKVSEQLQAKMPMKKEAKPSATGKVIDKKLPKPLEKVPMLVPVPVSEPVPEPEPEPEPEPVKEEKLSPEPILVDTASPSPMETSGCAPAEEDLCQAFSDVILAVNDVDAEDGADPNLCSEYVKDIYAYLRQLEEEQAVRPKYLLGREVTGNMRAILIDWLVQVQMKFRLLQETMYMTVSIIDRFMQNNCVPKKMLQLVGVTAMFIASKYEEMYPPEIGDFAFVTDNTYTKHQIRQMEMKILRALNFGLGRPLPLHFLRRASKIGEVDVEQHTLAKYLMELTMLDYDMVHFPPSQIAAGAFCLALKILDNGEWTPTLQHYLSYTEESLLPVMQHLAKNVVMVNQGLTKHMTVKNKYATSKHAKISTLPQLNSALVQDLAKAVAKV
The next experiment concerns the target ERK1 (Homo sapiens, UniProt P27361). Nature of the experiment: Protein kinase selectivity, ERK1. In kind it is biochemical.
In another experiment the target is CK2 (Homo sapiens, UniProt P68400). Briefly: Protein kinase selectivity, CK2. Type of experiment: biochemical.
Sequence of CK2 (P68400 whole entry): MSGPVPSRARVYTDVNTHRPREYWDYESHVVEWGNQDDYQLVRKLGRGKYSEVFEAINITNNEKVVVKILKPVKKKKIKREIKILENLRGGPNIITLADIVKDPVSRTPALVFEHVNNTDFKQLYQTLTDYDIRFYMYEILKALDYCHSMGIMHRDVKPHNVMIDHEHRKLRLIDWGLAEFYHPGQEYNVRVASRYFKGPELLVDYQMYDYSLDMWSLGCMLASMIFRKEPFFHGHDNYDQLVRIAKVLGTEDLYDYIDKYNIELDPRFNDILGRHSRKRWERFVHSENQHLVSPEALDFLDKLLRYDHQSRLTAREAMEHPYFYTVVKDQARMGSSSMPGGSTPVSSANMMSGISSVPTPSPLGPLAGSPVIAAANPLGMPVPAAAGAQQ
A further experiment deals with HUVEC cells. Briefly: In vitro Matrigel morphogenesis (tube formation) assay of VEGF stimulated HUVEC cells. In kind it is cell-based, human. The conditions noted are these: 100 mM (so in the source). The procedure: In Vitro Angiogenesis. […] After 5 hours of incubation in a 5% CO2-humidified atmosphere at 37 °C, the three-dimensional organization of the cells was examined using an inverted photomicroscope. The cells were fixed with Crystal Violet (0.05% in 20% ethanol) and digitally photographed.
To determine the anti-angiogenic properties of ILK inhibitors, an in vitro Matrigel morphogenesis assay was established. This assay evaluates the ability of endothelial cells to differentiate into capillary-like structures, a crucial step during neovascularization. HUVEC cells when stimulated with VEGF and seeded onto Matrigel rapidly attach to the matrix and begin to migrate and interact with the extracellular matrix proteins present in the Matrigel. […] These capillary-like structures can be assessed by histology (FIG. 2). Samples are cut on a cross section and subsequent viewed using an electron microscope. Typically, cylindrical formations with a lumen are observed. A distinct difference in the morphology of tube formation on Matrigel, compared to other in vitro angiogenesis assays is a reduction in the proliferation of endothelial cells. […] Using this model system, both inhibitors and stimulators of angiogenesis can be assessed prior to in vivo testing.
The assay was established and reproducibility confirmed. SU5416, shown to inhibit angiogenesis in other assays, was also evaluated. […]

A further experiment has as its target GSK3β (Homo sapiens, UniProt P49841). Nature of the experiment: Protein kinase selectivity, GSK3β. Type of experiment: biochemical.

Consider two compounds from US20050220779A1, “Integrin linked kinase modulation of macrophage activation” (priority 2001, published 2005).

Each structure is given as a SMILES string.

Sequence of GSK3β (P49841 whole entry, species assumed): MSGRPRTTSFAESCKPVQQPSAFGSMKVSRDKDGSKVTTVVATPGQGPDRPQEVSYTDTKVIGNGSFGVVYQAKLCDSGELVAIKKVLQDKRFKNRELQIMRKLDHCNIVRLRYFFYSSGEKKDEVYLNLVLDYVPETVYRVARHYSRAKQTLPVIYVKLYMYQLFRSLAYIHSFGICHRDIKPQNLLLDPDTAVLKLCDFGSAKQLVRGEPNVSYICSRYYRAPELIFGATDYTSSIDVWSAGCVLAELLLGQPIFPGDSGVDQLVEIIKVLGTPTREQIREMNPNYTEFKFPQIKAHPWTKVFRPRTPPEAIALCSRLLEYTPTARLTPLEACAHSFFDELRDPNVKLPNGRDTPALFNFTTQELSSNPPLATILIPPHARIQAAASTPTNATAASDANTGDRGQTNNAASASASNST
Sequence of SRC (P12931 whole entry, species assumed): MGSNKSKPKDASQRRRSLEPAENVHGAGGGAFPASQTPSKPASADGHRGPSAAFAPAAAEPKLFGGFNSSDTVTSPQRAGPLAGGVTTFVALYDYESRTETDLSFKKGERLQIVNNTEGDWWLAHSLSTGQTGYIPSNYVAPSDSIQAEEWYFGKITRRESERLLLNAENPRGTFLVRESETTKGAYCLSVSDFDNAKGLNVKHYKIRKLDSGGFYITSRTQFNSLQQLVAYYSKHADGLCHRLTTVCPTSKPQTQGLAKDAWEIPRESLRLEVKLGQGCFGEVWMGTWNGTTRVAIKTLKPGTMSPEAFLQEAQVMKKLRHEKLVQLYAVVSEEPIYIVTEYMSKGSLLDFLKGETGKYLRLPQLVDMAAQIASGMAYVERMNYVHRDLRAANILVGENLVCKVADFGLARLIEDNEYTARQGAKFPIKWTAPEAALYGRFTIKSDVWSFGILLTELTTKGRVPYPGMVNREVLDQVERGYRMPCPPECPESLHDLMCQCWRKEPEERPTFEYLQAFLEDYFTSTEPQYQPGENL
Sequence of ERK1 (P27361 whole entry, species assumed): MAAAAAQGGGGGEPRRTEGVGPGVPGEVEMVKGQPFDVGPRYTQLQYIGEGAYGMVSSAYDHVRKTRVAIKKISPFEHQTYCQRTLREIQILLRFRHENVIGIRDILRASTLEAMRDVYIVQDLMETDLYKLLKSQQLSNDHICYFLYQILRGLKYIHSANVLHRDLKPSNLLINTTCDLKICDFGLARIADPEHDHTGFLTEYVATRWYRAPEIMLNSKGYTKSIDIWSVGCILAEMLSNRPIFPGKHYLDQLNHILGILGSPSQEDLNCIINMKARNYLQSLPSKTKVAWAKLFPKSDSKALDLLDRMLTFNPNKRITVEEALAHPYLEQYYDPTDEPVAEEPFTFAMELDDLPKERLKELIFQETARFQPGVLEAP

As for `Oc1ccc2c(c1)CC1NCCc3cc(O)c(O)c-2c31` (stereo not shown) [KP-21849, 5,6,6a,7-Tetrahydro-4H-dibenzo[de,g]quinoline-1,2,9-triol], the “Inhibition of SRC (in words)” value at SRC is listed as “does not significantly inhibit”. Moreover, in experiment [1], the “NO release (%)” value is reported as −8.0% and the inhibition (usually the relative decrease from the control value, in per cent) at 50 µM amounted to 118%. At CDC2, the “Inhibition of CDC2 (in words)” value is on record as “does not significantly inhibit”. The “Inhibition of ERK1 (in words)” value at ERK1 is reported as “does not significantly inhibit”. In addition, the “Inhibition of CK2 (in words)” value at CK2 was “does not significantly inhibit”. For the same compound, in the experiment on HUVEC cells, the “Effect on endothelial cell morphogenesis (in words)” value is reported as “profound effect on HUVEC cells”. The “Inhibition of GSK3β (in words)” value at GSK3β was “does not significantly inhibit”.

For `N=C(N)N/N=C/c1ccc(Cl)cc1Cl` [KP-16735], in experiment [1], the “NO release (%)” value is given as −7.0% and the inhibition at 50 µM is 114%.
